# According to ChEMBL document CHEMBL1201862, “PubChem BioAssay data set” (2004):
# Active and inactive are the calls of the source.
# Columns and labels:
# H9c2 = assay: cells; type: functional, cell-based; details: Rattus norvegicus, H9c2, Myocardium;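 also: confirmatory concentration-response retest of ultra-high-throughput screening hits for modulation of myocardial damage; cell death induced by hydrogen peroxide oxidative stress; compound pretreatment for 60 min then peroxide exposure for 2 h; potency is for protecting the cells against peroxide damage rather than for killing them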
# [1] = THP-1 cell cytotoxicity, cytotoxicity control, set 4 (AID 504911); type: functional; details: Mycobacterium tuberculosis
# [2] = NIH-3T3 fibroblast cytotoxicity, dose response, cytotoxicity control, cell-based, fluorescence, Alamar Blue, secondary assay (AID 2327); type: functional;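 also: NIH-3T3 mouse fibroblasts cultured with fluconazole at 8 µg/mL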
# BJ [3] = assay: growth inhibition of engineered Ras-driven BJ cells – cell-based, alamar blue fluorescence, cherrypicked samples, dose response (AID 2631); type: functional; details: Homo sapiens;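 also: confirmatory dose-response assay in RAS-dependent BJ fibroblasts engineered with TERT, LT and ST, with cytotoxicity read by fluorescence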
# [4] = fluconazole-exposed Candida albicans growth modulators – fluorescence, retest, confirmation (AID 2467); type: functional, cell-based
# [5] = DRD fibroblast viability loss – cell-based, non-viral oncogenic, luminescence, dose response (AID 1934); type: functional; details: Homo sapiens
# BJ [6] = assay: cells; type: functional, cell-based; details: Homo sapiens
# BJ [7] = assay: BJ-TERT fibroblast viability loss – cell-based, RAS-independent, luminescence, dose response (AID 1933); type: functional; details: Homo sapiens
# BJ [8] = assay: BJ-TERT-LT-ST fibroblast viability loss – cell-based, RAS-independent, luminescence, dose response (AID 1935); type: functional; details: Homo sapiens;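 also: BJ fibroblasts immortalized with TERT plus LT and ST oncogenes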
# [9] = target: Photoreceptor-specific nuclear receptor (Homo sapiens, UniProt Q9Y5X4); type: functional, cell-based;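 also: CHO-S cells with Gal4-NCOR and VP16-NR2E3 two-hybrid luciferase reporter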
# Vero = assay: cells; type: functional; details: Chlorocebus sabaeus
# Streptokinase A = target: T1, Streptokinase A (Streptococcus pyogenes serotype M1, UniProt P10520); assay: viability-normalized secreted streptokinase activity reduction – plasminogen activation absorbance, OD405, dose response (AID 1914); type: functional, Streptococcus pyogenes M1 GAS;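 also: secreted streptokinase activity via plasminogen activation per viability signal from cell pellet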
# T1 sequence (P10520 whole entry): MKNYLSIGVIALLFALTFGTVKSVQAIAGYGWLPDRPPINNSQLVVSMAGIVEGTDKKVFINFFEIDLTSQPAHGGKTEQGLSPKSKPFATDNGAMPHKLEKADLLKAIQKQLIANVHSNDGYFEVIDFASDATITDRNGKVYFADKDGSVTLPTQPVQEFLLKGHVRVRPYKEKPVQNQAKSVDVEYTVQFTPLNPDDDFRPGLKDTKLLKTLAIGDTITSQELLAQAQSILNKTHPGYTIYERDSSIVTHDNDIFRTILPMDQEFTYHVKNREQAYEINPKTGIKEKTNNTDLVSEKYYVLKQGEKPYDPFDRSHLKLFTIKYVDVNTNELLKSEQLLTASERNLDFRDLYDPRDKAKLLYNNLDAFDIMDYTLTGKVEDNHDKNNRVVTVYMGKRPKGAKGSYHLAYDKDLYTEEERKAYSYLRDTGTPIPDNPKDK
# [10] = tested on: Streptococcus sp. 'group A'; assay: Streptococcus pyogenes SK(-)GAS viability under kanamycin – luminescence, BacTiterGlo, confirmation, counter-screen for streptokinase expression inhibitor project, dose response (AID 1900); type: functional, organism-based
# [11] = target: T2, RNA-binding protein pos-1 (Caenorhabditis elegans, UniProt G5EF15); assay: disruptors of C. elegans POS-1 RNA interaction – biochemical, fluorescence polarization, dose response (AID 1964);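 also: purified POS-1 fused to maltose binding protein made in E. coli; potency of compounds blocking POS-1 binding to fluorescent RNA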
# T2 sequence (G5EF15 whole entry): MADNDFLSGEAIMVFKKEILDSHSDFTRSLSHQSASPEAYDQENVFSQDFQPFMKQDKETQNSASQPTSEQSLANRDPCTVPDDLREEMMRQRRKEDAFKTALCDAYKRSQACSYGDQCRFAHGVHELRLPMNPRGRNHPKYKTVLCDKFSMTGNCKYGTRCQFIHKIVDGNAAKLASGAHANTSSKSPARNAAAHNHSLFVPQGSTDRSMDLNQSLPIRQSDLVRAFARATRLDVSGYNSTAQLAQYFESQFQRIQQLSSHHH
# Streptococcus = assay: GAS UMAA2166 growth inhibition – luminescence, BacTiterGlo, counter-screen for streptokinase expression inhibitor project, dose response (AID 1915); type: functional, organism-based;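 also: potency for reduction of bacterial viability or growth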
# [12] = target: T3, Zinc finger protein mex-5 (Caenorhabditis elegans, UniProt Q9XUB2); assay: potency of MEX-5 RNA-binding blockers – biochemical, C. elegans, fluorescence polarization, dose response (AID 1960)
# T3 sequence (Q9XUB2 whole entry): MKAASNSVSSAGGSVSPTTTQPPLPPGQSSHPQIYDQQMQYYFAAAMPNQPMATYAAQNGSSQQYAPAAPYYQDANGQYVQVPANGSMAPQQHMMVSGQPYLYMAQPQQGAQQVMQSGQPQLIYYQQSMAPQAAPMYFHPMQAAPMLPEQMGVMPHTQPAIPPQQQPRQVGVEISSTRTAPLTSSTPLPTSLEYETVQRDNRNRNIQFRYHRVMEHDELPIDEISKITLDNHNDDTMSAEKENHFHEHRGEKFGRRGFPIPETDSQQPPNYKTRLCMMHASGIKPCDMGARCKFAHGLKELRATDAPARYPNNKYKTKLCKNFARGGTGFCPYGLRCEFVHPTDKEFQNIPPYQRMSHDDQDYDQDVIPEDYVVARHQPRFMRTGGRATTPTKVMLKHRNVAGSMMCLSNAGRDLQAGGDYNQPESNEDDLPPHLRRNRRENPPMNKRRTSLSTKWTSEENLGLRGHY
# [13] = target: Tyrosine-protein phosphatase non-receptor type 22 (Homo sapiens, UniProt Q9Y2R2); assay: lymphoid phosphatase LYP inhibitors – biochemical, selectivity assay for STEP inhibitor project, dose response (AID 624241); type: functional
# [14] = target: T4, Voltage-gated N-type calcium channel alpha-1B subunit/Amyloid beta A4 precursor protein-binding family A member 1 (Homo sapiens, UniProt Q00975+Q02410); type: protein assay
# [15] = target: T5, Low molecular weight phosphotyrosine protein phosphatase (Homo sapiens, UniProt P24666); type: functional; details: read-out: IC50_Mean
# T5 sequence (P24666 whole entry): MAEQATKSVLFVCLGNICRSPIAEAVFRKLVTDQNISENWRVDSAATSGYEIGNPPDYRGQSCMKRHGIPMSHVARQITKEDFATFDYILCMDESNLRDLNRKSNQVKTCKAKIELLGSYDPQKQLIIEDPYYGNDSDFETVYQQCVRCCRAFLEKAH
# [16] = target: T6, Tyrosine-protein phosphatase non-receptor type 5 (Homo sapiens, UniProt P54829); assay: PTPN5 enzyme inhibition – biochemical, fluorescence intensity, uHTS hits, confirmation (AID 602372); type: functional; details: read-out: IC50_Mean
# T6 sequence (P54829 whole entry): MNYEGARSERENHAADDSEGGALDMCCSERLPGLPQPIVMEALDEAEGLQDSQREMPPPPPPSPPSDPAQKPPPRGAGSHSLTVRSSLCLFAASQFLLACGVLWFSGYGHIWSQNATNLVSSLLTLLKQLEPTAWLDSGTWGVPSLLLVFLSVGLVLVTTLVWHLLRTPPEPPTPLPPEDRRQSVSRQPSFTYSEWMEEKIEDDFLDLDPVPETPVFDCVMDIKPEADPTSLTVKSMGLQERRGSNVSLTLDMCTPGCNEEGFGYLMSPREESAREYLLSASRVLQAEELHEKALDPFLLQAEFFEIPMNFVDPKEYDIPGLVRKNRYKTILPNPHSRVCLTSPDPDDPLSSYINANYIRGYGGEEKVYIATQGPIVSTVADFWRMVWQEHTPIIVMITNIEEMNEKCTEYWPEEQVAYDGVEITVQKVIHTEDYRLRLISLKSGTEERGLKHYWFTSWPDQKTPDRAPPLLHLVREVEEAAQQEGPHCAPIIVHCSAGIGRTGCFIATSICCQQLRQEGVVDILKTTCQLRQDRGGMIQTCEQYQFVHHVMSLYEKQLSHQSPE
# [17] = target: T7, Tyrosine-protein phosphatase non-receptor type 11 (Homo sapiens, UniProt Q06124); assay: PTPN11 enzyme inhibitors – biochemical, selectivity assay for STEP inhibitor project, dose response (AID 602367); type: functional; details: read-out: IC50_Mean
# T7 sequence (Q06124 whole entry): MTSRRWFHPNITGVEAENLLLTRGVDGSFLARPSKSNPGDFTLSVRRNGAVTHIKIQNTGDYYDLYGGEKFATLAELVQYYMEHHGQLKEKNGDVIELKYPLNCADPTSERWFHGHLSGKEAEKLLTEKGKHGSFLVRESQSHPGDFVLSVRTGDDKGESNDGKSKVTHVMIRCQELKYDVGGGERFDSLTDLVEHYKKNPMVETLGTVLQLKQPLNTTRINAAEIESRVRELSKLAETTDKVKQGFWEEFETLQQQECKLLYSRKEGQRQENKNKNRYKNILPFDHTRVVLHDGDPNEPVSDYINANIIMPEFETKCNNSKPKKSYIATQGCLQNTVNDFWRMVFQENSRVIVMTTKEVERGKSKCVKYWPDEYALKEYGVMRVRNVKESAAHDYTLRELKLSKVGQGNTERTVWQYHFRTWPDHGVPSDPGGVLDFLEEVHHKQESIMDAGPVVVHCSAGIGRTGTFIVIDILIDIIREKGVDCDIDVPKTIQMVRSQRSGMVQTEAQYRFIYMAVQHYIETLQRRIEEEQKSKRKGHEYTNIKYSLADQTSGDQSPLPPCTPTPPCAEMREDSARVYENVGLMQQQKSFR
# [18] = target: T5, Low molecular weight phosphotyrosine protein phosphatase; type: functional; details: read-out: IC50_Mean; remark: listed apart in the source
# Beta Lactamase = Beta Lactamase (Pseudomonas aeruginosa, UniProt Q932Y6);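 also: confirmatory high-throughput screen measuring VIM-2 metallo-beta-lactamase inhibition by epi-absorbance in dose response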
# Beta-lactamase [19] = target: Beta-lactamase (Pseudomonas aeruginosa, UniProt Q79MP6);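 also: biochemical dose-response test of metallo-beta-lactamase enzyme inhibition, read out by epi-absorbance; purified recombinant IMP-1 metallo-beta-lactamase with nitrocefin as substrate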
# [20] = target: Dual specificity protein phosphatase 3 (Homo sapiens, UniProt P51452); assay: VHR phosphatase inhibition, dose response, selectivity assay for STEP inhibitor project, biochemical (AID 602374); type: functional; details: read-out: IC50_Mean
# [21] = target: T4, Voltage-gated N-type calcium channel alpha-1B subunit/Amyloid beta A4 precursor protein-binding family A member 1; type: protein assay; remark: listed apart in the source
# Beta-lactamase [22] = target: Beta-lactamase (Salmonella choleraesuis (strain SC-B67), UniProt Q5J463)
# Chain of Beta-lactamase (Salmonella choleraesuis (strain SC-B67), UniProt Q5J463) (Q5J463 whole entry): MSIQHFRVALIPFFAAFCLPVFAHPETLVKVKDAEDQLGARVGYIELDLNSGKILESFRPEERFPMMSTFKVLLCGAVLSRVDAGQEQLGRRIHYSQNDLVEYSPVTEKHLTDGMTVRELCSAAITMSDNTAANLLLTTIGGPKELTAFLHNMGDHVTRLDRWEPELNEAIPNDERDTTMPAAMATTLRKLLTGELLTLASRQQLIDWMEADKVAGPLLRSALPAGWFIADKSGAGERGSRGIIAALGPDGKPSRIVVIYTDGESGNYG
# T4 sequence (Q00975 whole entry): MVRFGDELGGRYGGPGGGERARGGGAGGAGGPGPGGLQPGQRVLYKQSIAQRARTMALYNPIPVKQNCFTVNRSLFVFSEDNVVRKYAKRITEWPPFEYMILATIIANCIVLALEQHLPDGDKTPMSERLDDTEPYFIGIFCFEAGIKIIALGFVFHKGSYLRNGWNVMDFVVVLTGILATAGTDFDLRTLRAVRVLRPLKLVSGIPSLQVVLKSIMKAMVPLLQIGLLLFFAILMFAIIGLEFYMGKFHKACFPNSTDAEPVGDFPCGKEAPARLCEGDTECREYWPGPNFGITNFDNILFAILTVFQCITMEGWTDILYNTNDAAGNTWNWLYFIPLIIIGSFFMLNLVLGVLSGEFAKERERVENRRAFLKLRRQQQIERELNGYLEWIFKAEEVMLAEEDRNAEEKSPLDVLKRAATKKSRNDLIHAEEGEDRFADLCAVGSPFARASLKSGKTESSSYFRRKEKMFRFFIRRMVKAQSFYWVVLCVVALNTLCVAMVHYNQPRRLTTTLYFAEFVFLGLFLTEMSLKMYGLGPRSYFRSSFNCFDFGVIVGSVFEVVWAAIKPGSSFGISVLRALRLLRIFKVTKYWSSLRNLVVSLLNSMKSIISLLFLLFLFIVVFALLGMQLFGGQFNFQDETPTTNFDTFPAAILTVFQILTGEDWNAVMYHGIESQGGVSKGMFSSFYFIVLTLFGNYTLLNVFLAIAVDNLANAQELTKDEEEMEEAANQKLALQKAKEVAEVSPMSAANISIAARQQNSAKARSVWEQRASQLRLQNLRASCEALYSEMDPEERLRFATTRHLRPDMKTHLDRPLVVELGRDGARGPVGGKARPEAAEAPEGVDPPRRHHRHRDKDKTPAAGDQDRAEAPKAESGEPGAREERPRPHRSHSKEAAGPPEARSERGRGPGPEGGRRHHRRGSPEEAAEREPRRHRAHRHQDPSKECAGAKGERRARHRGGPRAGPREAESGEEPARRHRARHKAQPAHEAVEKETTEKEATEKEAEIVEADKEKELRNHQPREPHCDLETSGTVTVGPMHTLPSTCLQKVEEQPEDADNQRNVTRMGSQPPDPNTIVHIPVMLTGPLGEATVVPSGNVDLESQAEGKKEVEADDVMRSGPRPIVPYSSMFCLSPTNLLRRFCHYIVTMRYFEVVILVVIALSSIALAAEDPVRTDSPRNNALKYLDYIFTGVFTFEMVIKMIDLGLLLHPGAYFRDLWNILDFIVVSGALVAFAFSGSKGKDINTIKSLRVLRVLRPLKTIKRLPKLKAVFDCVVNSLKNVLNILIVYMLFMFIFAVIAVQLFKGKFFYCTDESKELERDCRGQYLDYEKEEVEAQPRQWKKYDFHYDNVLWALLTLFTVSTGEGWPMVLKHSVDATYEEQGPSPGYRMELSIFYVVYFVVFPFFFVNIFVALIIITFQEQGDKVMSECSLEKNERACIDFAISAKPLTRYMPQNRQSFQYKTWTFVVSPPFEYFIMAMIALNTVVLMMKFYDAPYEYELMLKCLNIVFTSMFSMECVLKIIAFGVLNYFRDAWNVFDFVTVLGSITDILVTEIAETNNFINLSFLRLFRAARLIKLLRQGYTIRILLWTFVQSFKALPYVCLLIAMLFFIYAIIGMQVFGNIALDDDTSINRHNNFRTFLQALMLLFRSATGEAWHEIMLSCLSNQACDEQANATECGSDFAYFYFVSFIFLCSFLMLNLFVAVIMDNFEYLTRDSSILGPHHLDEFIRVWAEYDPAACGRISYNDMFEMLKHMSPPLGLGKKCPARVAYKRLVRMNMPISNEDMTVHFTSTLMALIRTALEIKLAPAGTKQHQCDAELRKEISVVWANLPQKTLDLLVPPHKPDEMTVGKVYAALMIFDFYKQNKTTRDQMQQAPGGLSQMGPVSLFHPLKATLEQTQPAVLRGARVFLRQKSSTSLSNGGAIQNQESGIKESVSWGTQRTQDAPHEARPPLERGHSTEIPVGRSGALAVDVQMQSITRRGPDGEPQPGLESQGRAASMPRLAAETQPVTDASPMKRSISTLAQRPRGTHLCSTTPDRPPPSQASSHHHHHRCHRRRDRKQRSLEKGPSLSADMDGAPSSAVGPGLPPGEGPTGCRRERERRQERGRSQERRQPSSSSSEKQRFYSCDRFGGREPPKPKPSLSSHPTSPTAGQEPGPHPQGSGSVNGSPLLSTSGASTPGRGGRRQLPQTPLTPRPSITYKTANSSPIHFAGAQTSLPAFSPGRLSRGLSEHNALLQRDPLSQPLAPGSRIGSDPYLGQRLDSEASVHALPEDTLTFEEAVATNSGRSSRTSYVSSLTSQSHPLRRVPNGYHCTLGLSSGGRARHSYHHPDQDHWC
# T4 sequence (Q02410 whole entry): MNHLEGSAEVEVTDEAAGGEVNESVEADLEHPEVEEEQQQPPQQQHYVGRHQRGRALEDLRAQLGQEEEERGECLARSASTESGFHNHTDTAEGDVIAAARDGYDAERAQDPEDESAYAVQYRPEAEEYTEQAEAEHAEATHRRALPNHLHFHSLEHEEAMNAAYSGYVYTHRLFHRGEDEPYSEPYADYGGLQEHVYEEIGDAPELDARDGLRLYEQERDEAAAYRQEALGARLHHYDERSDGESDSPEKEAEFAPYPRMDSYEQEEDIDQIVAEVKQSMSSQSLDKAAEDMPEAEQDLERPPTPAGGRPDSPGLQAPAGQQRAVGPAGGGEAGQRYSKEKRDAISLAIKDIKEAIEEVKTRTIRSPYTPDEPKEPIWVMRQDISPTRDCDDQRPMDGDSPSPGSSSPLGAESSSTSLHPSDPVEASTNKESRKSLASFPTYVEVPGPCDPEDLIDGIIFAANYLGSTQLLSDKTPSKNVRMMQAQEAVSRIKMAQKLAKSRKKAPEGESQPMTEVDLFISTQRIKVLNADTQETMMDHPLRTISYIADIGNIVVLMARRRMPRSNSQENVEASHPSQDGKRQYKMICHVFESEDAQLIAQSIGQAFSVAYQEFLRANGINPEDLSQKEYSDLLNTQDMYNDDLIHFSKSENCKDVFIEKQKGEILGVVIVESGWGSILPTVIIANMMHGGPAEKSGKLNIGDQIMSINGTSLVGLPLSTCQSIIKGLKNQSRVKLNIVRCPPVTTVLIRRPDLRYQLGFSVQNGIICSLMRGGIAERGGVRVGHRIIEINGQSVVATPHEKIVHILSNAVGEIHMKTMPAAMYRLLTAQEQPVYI
# Chain of Photoreceptor-specific nuclear receptor (Q9Y5X4 whole entry, the tested form may be a part): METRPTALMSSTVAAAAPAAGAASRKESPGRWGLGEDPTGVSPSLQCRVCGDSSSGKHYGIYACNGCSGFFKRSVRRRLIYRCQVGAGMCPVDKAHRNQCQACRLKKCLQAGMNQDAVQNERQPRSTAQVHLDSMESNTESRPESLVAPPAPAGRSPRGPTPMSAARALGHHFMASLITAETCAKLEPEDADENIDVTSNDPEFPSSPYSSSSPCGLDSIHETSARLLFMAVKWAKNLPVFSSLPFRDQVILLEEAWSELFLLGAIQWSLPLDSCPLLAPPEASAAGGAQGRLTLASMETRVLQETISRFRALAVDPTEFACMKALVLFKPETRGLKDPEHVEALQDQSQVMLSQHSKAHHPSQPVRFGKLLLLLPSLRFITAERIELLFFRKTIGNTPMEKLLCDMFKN
# Chain of Beta-lactamase (Pseudomonas aeruginosa, UniProt Q79MP6) (Q79MP6 whole entry): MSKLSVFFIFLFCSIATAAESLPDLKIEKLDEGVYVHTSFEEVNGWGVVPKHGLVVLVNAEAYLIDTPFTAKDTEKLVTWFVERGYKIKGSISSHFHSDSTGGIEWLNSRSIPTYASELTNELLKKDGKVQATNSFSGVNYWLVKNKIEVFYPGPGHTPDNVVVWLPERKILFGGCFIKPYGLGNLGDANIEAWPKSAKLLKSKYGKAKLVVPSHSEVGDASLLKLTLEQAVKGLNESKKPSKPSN
# Chain of Dual specificity protein phosphatase 3 (P51452 whole entry): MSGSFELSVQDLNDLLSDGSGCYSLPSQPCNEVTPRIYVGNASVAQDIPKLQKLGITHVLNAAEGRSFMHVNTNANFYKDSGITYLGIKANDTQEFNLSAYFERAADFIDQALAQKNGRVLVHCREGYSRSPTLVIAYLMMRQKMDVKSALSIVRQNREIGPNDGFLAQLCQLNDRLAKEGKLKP
# Chain of Beta Lactamase (Q932Y6 whole entry): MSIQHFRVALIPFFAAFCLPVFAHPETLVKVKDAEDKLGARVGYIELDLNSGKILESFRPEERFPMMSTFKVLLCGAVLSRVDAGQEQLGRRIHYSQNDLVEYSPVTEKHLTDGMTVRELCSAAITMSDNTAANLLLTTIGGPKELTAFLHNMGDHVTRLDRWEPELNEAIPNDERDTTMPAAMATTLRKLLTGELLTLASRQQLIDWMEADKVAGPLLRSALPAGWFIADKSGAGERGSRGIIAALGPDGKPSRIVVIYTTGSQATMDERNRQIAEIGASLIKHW
smiles,measurement,setting,value
O=C(CSc1nc(O)c2ccccc2n1)N1CCOCC1,IC50,H9c2,25.9 µM (active)
same,CC50,[1],> 100 µM (active)
O=C(/C=C/c1ccc([N+](=O)[O-])o1)NNC(=O)c1ccc(F)cc1,EC50,[2],4.1 µM (inconclusive)
same,EC50,BJ [3],2.93 µM (active)
same,EC50,[4],1.24 µM (active)
same,EC50,[5],7.26 µM (active)
same,EC50,BJ [6],4.1 µM (inconclusive)
same,EC50,BJ [7],7.04 µM (inconclusive)
same,EC50,BJ [8],> 150 µM (inconclusive)
same,IC50,[9],1.8 µM (active)
same,CC50,Vero,14.5 µM (active)
same,EC50,Streptokinase A,13.9 µM (active)
same,EC50,[10],2.58 µM (active)
same,EC50,[11],> 300 µM (not active)
same,EC50,Streptococcus,10.3 µM (active)
same,EC50,[12],24.8 µM (active)
C/C(=N\Nc1ccc(S(N)(=O)=O)cc1[N+](=O)[O-])c1cccs1,IC50,[13],81.3 µM (inactive)
same,IC50,[14],1.42 µM (active)
same,IC50,[15],38.2 µM (inactive)
same,IC50,[16],13.9 µM (active)
same,IC50,[17],2.13 µM (active)
same,IC50,[18],> 80 µM (inactive)
same,IC50,Beta Lactamase,> 59.6 µM (inactive)
same,IC50,Beta-lactamase [19],> 59.6 µM (inactive)
same,IC50,[20],3.04 µM (active)
same,IC50,[21],> 50 µM (inactive)
same,IC50,Beta-lactamase [22],> 59.6 µM (inactive)
